Results taken from ChEMBL document CHEMBL4376865, “Discovery and Characterization of 1H-1,2,3-Triazole Derivatives as Novel Prostanoid EP4 Receptor Antagonists for Cancer Immunotherapy” (J Med Chem, 2020).

Legend:
[1] = molecular target: T1, Prostaglandin E2 receptor EP3 subtype (Homo sapiens, UniProt P43115)
T1 sequence (P43115 whole entry): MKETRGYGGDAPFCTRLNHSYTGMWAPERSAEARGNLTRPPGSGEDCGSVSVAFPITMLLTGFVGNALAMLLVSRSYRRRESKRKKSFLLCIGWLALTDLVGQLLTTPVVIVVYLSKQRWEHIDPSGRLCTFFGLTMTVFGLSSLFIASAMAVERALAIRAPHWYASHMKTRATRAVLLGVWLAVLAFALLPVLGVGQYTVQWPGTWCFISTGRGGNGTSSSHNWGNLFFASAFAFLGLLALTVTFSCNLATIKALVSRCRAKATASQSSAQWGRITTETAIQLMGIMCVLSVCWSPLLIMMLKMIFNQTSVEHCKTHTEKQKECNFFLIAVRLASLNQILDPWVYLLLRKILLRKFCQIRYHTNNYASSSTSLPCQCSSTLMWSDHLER
Description: Antagonist activity at human EP3 expressed in CHO cells coexpressing G16-alpha assessed as intracellular calcium flux preincubated for 15 mins followed by addition of PGE2 by calcium flux assay

[2] = molecular target: Prostaglandin E2 receptor EP2 subtype (Homo sapiens, UniProt P43116)
Sequence of Prostaglandin E2 receptor EP2 subtype (P43116 whole entry): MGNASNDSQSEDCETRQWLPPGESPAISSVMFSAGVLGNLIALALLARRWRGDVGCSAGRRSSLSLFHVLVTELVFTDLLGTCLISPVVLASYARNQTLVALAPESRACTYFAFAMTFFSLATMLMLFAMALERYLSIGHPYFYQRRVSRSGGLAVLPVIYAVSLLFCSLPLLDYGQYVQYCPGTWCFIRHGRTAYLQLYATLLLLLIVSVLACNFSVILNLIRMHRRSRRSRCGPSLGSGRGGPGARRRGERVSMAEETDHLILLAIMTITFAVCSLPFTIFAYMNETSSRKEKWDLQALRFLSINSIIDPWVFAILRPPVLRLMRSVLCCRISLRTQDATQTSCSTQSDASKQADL
Description: Antagonist activity at human EP2 expressed in CHO cells coexpressing G16-alpha assessed as intracellular calcium flux preincubated for 15 mins followed by addition of PGE2 by calcium flux assay

[3] = molecular target: Prostaglandin E2 receptor EP4 subtype (Mus musculus, UniProt P32240); test: Antagonist activity at mouse EP4 expressed in CHO cells coexpressing G16-alpha assessed as intracellular calcium flux preincubated for 15 mins followed by addition of PGE2 by calcium flux assay; type: functional, cell-based
Sequence of Prostaglandin E2 receptor EP4 subtype (Mus musculus, UniProt P32240) (P32240 whole entry): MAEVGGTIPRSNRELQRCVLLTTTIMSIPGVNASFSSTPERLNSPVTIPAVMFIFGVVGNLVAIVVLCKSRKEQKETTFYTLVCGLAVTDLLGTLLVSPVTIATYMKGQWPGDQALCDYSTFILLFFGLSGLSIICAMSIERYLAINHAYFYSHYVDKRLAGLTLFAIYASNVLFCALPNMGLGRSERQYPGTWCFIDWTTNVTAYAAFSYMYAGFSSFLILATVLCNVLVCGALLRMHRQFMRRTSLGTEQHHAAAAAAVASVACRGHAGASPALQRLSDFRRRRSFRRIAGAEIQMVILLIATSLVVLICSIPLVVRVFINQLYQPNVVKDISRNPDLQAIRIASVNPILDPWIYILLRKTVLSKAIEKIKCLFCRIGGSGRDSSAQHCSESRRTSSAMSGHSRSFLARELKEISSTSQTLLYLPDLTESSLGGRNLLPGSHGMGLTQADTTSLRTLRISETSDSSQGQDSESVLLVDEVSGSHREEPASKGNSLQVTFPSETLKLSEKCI

[4] = molecular target: T2, Prostaglandin E2 receptor EP1 subtype (Homo sapiens, UniProt P34995); test: Antagonist activity at human EP1 expressed in CHO cells coexpressing G16-alpha assessed as intracellular calcium flux preincubated for 15 mins followed by addition of PGE2 by calcium flux assay; type: functional, cell-based
T2 sequence (P34995 whole entry): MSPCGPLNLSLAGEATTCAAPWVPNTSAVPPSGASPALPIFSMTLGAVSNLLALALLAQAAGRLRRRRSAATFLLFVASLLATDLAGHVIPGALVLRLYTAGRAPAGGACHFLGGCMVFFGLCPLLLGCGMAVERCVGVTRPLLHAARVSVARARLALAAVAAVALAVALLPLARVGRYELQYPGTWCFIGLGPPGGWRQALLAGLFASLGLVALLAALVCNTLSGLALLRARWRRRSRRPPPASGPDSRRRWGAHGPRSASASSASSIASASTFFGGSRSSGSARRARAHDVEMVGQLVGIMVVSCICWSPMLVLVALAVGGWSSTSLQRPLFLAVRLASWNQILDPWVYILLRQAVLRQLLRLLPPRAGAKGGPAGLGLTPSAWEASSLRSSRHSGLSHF

[5] = molecular target: Prostaglandin E2 receptor EP4 subtype (Homo sapiens, UniProt P35408)
Sequence of Prostaglandin E2 receptor EP4 subtype (Homo sapiens, UniProt P35408) (P35408 whole entry): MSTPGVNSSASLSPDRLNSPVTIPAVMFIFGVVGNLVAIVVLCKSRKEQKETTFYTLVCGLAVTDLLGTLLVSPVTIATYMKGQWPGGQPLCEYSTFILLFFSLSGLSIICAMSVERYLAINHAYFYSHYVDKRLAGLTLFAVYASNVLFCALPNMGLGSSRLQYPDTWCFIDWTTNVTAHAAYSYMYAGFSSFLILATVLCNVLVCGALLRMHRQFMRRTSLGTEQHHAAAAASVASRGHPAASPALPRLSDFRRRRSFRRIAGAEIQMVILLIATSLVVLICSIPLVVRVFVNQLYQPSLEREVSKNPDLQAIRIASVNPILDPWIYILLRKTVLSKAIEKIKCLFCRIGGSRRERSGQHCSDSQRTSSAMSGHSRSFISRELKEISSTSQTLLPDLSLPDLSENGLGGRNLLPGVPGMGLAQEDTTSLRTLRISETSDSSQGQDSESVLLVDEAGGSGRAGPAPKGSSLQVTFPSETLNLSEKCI
Description: Antagonist activity at human EP4 expressed in CHO cells coexpressing G16-alpha assessed as intracellular calcium flux preincubated for 15 mins followed by addition of PGE2 by calcium flux assay

[6] = in vitro; conditions: human, liver microsomes
[7] = Metabolic stability in human liver microsomes assessed as compound remaining at 10 uM incubated for 1 hr
[8] = in vitro; conditions: human, liver microsomes; remark: listed apart in the source
[9] = molecular target: CYP2C9 (Homo sapiens, UniProt P11712); test: Inhibition of CYP2C9 in human liver microsomes at 20 uM using tolbutamide as substrate incubated for 60 mins by HPLC analysis relative to control; type: ADME; conditions: probe tolbutamide
Sequence of CYP2C9 (P11712 whole entry): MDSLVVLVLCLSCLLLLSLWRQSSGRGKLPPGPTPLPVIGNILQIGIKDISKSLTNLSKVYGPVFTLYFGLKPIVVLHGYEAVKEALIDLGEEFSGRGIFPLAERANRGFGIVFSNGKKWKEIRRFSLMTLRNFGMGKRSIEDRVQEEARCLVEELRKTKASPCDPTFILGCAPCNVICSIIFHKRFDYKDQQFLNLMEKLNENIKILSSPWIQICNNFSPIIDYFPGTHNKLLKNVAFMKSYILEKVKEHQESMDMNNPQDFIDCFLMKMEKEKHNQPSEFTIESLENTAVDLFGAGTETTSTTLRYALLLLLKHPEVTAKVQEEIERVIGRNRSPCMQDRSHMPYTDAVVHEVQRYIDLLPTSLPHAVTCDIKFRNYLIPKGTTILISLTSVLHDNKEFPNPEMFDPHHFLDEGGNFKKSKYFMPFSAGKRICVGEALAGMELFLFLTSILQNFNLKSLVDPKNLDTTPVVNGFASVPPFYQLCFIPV

[10] = molecular target: T3, CYP1A2 (Homo sapiens, UniProt P05177); test: Inhibition of CYP1A2 in human liver microsomes at 20 uM using phenacetin as substrate incubated for 30 mins by HPLC analysis relative to control; type: ADME; conditions: probe phenacetin
T3 sequence (P05177 whole entry): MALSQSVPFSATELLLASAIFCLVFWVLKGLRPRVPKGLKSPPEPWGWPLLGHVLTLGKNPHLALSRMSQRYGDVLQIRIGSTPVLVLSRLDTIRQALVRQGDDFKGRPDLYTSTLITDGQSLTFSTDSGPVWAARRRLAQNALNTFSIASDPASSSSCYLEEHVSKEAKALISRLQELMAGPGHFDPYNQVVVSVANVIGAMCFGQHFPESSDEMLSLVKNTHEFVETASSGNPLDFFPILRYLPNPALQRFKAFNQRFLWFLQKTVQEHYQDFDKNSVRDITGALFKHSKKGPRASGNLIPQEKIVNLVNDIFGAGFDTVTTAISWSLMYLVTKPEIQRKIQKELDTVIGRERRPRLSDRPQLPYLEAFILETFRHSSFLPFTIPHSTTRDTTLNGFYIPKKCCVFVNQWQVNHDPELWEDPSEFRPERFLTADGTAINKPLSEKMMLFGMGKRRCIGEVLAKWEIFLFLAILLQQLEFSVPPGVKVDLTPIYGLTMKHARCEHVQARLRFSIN

[11] = molecular target: CYP2E1 (Homo sapiens, UniProt P05181); test: Inhibition of CYP2E1 in human liver microsomes at 20 uM using chlorzoxazone as substrate incubated for 60 mins by HPLC analysis relative to control; type: ADME; conditions: probe chlorzoxazone
Sequence of CYP2E1 (P05181 whole entry): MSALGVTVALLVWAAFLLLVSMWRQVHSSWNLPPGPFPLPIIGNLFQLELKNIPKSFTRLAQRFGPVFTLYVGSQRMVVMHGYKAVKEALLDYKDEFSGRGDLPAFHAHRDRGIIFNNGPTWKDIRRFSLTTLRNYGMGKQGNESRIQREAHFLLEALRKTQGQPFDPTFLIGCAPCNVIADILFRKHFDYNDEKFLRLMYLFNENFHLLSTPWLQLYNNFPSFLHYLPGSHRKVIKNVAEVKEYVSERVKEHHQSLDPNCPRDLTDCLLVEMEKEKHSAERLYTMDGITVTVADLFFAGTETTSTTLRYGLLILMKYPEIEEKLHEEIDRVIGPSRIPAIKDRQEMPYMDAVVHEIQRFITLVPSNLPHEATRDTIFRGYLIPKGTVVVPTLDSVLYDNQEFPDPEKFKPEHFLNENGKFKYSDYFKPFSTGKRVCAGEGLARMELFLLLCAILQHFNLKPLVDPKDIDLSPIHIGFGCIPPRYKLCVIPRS

[12] = molecular target: T4, CYP2B6 (Homo sapiens, UniProt P20813); test: Inhibition of CYP2B6 in human liver microsomes at 20 uM incubated for 60 mins by HPLC analysis relative to control; type: ADME
T4 sequence (P20813 whole entry): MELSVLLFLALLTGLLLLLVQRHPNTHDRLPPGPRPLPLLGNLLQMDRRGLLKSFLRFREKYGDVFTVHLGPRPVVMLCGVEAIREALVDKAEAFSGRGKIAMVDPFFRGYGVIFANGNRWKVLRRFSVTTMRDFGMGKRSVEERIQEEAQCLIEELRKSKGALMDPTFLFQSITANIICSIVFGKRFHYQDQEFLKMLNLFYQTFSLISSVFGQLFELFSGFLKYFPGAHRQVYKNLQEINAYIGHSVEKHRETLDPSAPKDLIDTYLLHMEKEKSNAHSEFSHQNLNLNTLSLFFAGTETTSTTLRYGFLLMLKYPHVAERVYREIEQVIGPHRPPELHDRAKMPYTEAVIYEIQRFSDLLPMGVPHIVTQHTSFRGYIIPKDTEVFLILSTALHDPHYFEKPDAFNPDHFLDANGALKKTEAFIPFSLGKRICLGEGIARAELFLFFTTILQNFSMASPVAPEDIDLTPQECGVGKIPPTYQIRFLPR

[13] = molecular target: Cytochrome P450 3A4 (Homo sapiens, UniProt P08684); test: Inhibition of CYP3A4 in human liver microsomes at 20 uM using testosterone as substrate incubated for 60 mins by HPLC analysis; type: ADME; conditions: 1 h
Sequence of Cytochrome P450 3A4 (P08684 whole entry): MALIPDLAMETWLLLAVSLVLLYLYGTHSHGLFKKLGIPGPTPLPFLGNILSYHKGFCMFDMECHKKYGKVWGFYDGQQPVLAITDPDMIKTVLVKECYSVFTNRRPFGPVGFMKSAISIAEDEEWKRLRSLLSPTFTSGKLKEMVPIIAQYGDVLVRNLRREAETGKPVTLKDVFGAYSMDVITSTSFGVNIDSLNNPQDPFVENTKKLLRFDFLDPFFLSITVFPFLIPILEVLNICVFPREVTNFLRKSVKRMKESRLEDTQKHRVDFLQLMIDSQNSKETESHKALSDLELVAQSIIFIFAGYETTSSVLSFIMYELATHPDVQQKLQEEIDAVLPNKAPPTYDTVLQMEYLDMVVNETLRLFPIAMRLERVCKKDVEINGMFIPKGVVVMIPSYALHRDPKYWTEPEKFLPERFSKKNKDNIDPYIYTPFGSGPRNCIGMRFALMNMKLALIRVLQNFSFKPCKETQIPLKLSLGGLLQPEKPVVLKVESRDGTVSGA

[14] = molecular target: CYP2D6 (Homo sapiens, UniProt P10635); test: Inhibition of CYP2D6 in human liver microsomes at 20 uM using dextromethorphan as substrate incubated for 60 mins by HPLC analysis relative to control; type: ADME; conditions: probe dextromethorphan
Sequence of CYP2D6 (P10635 whole entry): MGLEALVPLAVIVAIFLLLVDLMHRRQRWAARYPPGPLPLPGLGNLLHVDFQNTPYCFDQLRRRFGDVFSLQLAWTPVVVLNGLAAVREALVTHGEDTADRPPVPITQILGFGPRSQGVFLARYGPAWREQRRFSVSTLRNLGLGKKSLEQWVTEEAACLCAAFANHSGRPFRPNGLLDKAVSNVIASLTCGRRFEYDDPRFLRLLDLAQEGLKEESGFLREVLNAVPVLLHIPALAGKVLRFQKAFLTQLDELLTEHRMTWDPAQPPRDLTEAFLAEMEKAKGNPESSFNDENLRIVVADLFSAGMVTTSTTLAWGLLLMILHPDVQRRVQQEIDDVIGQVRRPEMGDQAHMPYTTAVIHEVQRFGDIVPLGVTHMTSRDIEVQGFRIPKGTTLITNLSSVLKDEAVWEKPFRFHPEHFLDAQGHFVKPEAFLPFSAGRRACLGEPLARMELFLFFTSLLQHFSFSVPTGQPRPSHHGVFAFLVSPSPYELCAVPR

IC50 [1]	IC50 [2]	IC50 [3]	IC50 [4]	IC50 [5]	Compound	also measured
> 10 µM	> 10 µM	132 nM	> 10 µM	–	C[C@H](NC(=O)c1c(-c2ccccc2)nnn1CCOc1ccc(F)cc1)c1ccc(C(=O)O)cc1	–
> 10 µM	> 10 µM	57.6 nM	> 10 µM	45.6 nM	C[C@H](NC(=O)c1c(-c2ccoc2)nnn1Cc1ccc(C(F)(F)F)cc1)c1ccc(C(=O)O)cc1	microsomal CLint at 1 h, 10 µM [6]: < 9.6 µL/min/mg; remaining at 1 h, 10 µM [7]: 87.9%; half-life at 1 h, 10 µM [8]: > 145 min
–	–	–	–	> 1000 nM	C/C=C/c1nnn(Cc2ccc(C(F)(F)F)cc2)c1C(=O)N[C@H](C)c1ccc(C(=O)O)cc1	–
–	–	–	–	330 nM	C[C@H](NC(=O)c1c(-c2ccccc2)nnn1Cc1ccc(F)cc1)c1ccc(C(=O)O)cc1	–
–	–	–	–	225 nM	C[C@H](NC(=O)c1c(C(F)(F)F)nnn1Cc1ccc(C(F)(F)F)cc1)c1ccc(C(=O)O)cc1	–
> 10 µM	> 10 µM	400 nM	> 10 µM	–	C[C@H](NC(=O)c1c(C2=CCCC2)nnn1Cc1ccc(C(F)(F)F)cc1)c1ccc(C(=O)O)cc1	–
–	–	–	–	96.8 nM	COc1cccc(Cn2nnc(-c3ccccc3)c2C(=O)N[C@@H](C)c2ccc(C(=O)O)cc2)c1	–
–	–	130 nM	–	10.5 nM	C/C=C/c1nnn(Cc2ccc(C(F)(F)F)cc2)c1C(=O)NCc1ccc(C(=O)O)cc1	–
–	–	–	–	> 10000 nM	C[C@H](NC(=O)c1c(C(F)(F)F)nnn1CCc1ccc(F)cc1)c1ccc(C(=O)O)cc1	–
> 10 µM	> 10 µM	135 nM	> 10 µM	–	C[C@H](NC(=O)c1c(-c2ccccc2)nnn1CCOc1cccc(C(F)(F)F)c1)c1ccc(C(=O)O)cc1	inhibition at 1 h, 20 µM [9]: 67%; inhibition at 0.5 h, 20 µM [10]: 30%; inhibition at 1 h, 20 µM [11]: 67%; inhibition at 1 h, 20 µM [12]: 51%; inhibition (INH) [13]: Not Active; inhibition at 1 h, 20 µM [14]: 30%
–	–	–	–	> 10000 nM	C[C@H](NC(=O)c1nnn(Cc2cccc(C(F)(F)F)c2)c1C(F)(F)F)c1ccc(C(=O)O)cc1	–
–	–	–	–	9.3 nM	COc1ccc(Cn2nnc(-c3ccccc3)c2C(=O)N[C@@H](C)c2ccc(C(=O)O)cc2)cc1	–
> 10 µM	> 10 µM	906 nM	> 10 µM	8.5 nM	C[C@H](NC(=O)c1c(-c2ccccc2)nnn1Cc1ccc(C(F)(F)F)cc1)c1ccc(C(=O)O)cc1	microsomal CLint at 1 h, 10 µM [6]: < 9.6 µL/min/mg; remaining at 1 h, 10 µM [7]: 84.9%; half-life at 1 h, 10 µM [8]: > 145 min
–	–	–	–	> 10000 nM	CCCc1c(C(=O)N[C@@H](C)c2ccc(C(=O)O)cc2)nnn1Cc1ccc(C(F)(F)F)cc1	–
–	–	–	–	> 10000 nM	Cc1nnn(Cc2ccc(C(F)(F)F)cc2)c1C(=O)N[C@@H](C)c1ccc(C(=O)O)cc1	–
–	–	–	–	> 10000 nM	C[C@H](NC(=O)c1cnnn1Cc1ccc(C(F)(F)F)cc1)c1ccc(C(=O)O)cc1	–
